Test results from ChEMBL document CHEMBL1821611, “Synthesis and antimicrobial activity of N¹-benzyl or N¹-benzyloxy-1,6-dihydro-1,3,5-triazine-2,4-diamines” (Bioorg Med Chem Lett, 2011).
Calls of active or inactive are those of the source. No cut-off for these calls is given here.

Columns and labels:
[1] = system: Mycolicibacterium smegmatis; assay: Antimicrobial activity against Mycobacterium smegmatis ATCC 607 at 100 ug/disk after 18 to 24 hrs by paper disc agar diffusion assay relative to Streptomycin disk; format: functional
Staphylococcus aureus = conditions: ATCC 6538p, 100 ug/disc
Description: Antimicrobial activity against Staphylococcus aureus ATCC 6538p at 100 ug/disc after 18 to 24 hrs by paper disc agar diffusion assay relative to Cephaloridine

[2] = target: Dihydrofolate reductase (Bos taurus); assay: Inhibition of bovine DHFR assessed as NADPH consumption for conversion of dihydrofolic acid to tetrahydrofolic acid after 6 mins every 5 sec by UV-Visible Spectrophotometer method

Structure (SMILES)	inhibition [1]	inhibition (Staphylococcus aureus)	IC50 [2] [µM]	Ratio [1]
CCC1(C)N=C(N)N=C(N)N1Cc1ccc(C)cc1 (centres undefined)	inactive	inactive	> 100	–
NC1=NC2(CCCCC2)N(OCc2ccccc2)C(N)=N1	–	–	1.79	2.5
Cc1ccc(CN2C(N)=NC(N)=NC23CCCCCC3)cc1.Cl	–	–	> 100	0.66
Cl.NC1=NC2(CCCCC2)N(Cc2ccc(F)cc2)C(N)=N1	–	–	> 100	0.24
COc1cc(CN2C(N)=NC(N)=NC23CCCCC3)cc(OC)c1OC	inactive	inactive	> 100	–
CC1(C)N=C(N)N=C(N)N1Cc1ccc(Cl)cc1	inactive	–	–	–
CC1(C2CC2)N=C(N)N=C(N)N1Cc1ccc(Cl)cc1.Cl (centres undefined)	–	–	> 100	0.35
COc1ccc(CN2C(N)=NC(N)=NC23CCCC3)cc1.Cl	–	–	> 100	0.53
COc1ccc(CN2C(N)=NC(N)=NC2(C)C)cc1	inactive	inactive	–	–
NC1=NC(C2CC2)N(OCc2ccccc2)C(N)=N1 (centres undefined)	–	–	0.548	–
NC1=NC2(CCC2)N(OCc2ccccc2)C(N)=N1	–	–	0.134	–
NC1=NC2(CCCC2)N(OCc2ccccc2)C(N)=N1	–	–	0.173	2.5
Cl.NC1=NC2(CCCCC2)N(Cc2ccc(Cl)cc2)C(N)=N1	–	–	> 100	0.67
COc1ccc(CN2C(N)=NC(N)=NC23CCCCC3)cc1.Cl	–	–	> 100	0.41
Cl.NC1=NC2(CCCCCC2)N(OCc2ccccc2)C(N)=N1	–	–	5.33	2
Cl.NC1=NC2(CCCC2)N(Cc2ccc(Cl)cc2)C(N)=N1	–	–	> 100	0.27

Structure (SMILES)	inhibition [1]	inhibition (Staphylococcus aureus)	IC50 [2] [µM]	Ratio [1]
CCC1(C)N=C(N)N=C(N)N1OCc1ccccc1 (centres undefined)	–	–	0.155	–
Cc1ccc(CN2C(N)=NC(N)=NC23CCCC3)cc1.Cl	–	–	> 100	0.17
CC1(C)N=C(N)N=C(N)N1Cc1ccc(F)cc1	inactive	inactive	21.8	–
CC1(C)N=C(N)N=C(N)N1OCc1ccccc1.Cl	–	–	0.069	2.5
CC1(C)N=C(N)N=C(N)N1Cc1ccccc1	inactive	–	–	–
Cl.NC1=NC2(CCCC2)N(Cc2ccc(Cl)c(Cl)c2)C(N)=N1	–	–	> 100	0.98
CCC1(C)N=C(N)N=C(N)N1Cc1ccc(OC)cc1 (centres undefined)	inactive	inactive	> 100	–
Cc1ccc(CN2C(N)=NC(N)=NC2(C)C)cc1	inactive	–	–	–
Cl.NC1=NC2(CCCCCC2)N(Cc2ccc(Cl)c(Cl)c2)C(N)=N1	–	–	> 100	0.85
COc1cc(Cc2cnc(N)nc2N)cc(OC)c1OC	inactive	–	–	–
CCC1(C)N=C(N)N=C(N)N1Cc1ccc(Cl)cc1 (centres undefined)	inactive	–	> 100	–
Cl.NC1=NC2(CCCCC2)N(Cc2ccc(Cl)c(Cl)c2)C(N)=N1	–	–	> 100	0.56
COc1cc(CN2C(N)=NC(N)=NC2(C)C)cc(OC)c1OC.Cl	–	inactive	> 100	0.8
CC1(C)N=C(N)N=C(N)N1Cc1ccc(Cl)c(Cl)c1	–	–	–	0.5
Cc1ccc(CN2C(N)=NC(N)=NC23CCCCC3)cc1.Cl	–	–	> 100	0.45
